We go through 15 compounds from patent US20250205276A1, “COMPOSITIONS AND METHODS OF TREATMENT OF DISEASE USING COMBINATION OF A NITRODILATOR AND A NITROGEN OXIDE COMPOUND” (LOMA LINDA UNIVERSITY, priority 2022, published 2025).

Where two headings read alike, the source gives them in different places. Bounds are passed on as bounds.

For series [1], the system named is isolated sheep mesenteric arteries. The series can be described thus: Relaxation of endothelium-denuded sheep mesenteric arteries contracted with 5-HT. To be noted: for enabling of inhibition of vasodilation by CPTIO: SOD1 1000 U/ml, converts HNO into NO. The format is cell-based. As for the experimental part:
Isolated sheep mesenteric arteries were denuded of endothelium and contracted with 10 μM 5-HT (n=5). FIG. 5A presents examples of relaxation traces (one animal, six arterial strips) of NTG in the absence and presence of an sGC inhibitor (ODQ) (10 μM) or superoxide dismutase (SOD1) (1000 U/ml, converts HNO into NO), or the extracellular NO scavenger CPTIO (200 μM), or SOD1 and CPTIO together. All traces were normalized for comparison of extent of relaxation.
FIG. 5B is a graphical representation of the amplification of the area in the red circle in ‘A’. FIG. 5C is a graphical representation of the effects of SOD1, CPTIO, SOD1+CPTIO, and ODQ on relaxation in response to Nitroglycerin. FIG. 5D is a graphical representation of the effects of SOD1, CPTIO, and SOD1+CPTIO on relaxation in response to nitrosoglutathione (GSNO). SOD1, via putative conversion of HNO to NO, enables the inhibitory effects of CPTIO on relaxation caused by NTG and GSNO.
As discussed above, there are reasons to doubt whether NO itself is the mediator of sGC activation in the NANOS model. Rather, an equivalent of NO may be released by activation of the NANOS. […] The NO equivalent has HNO-like characteristics. […] Isolated sheep mesenteric arteries were denuded of endothelium and contracted with 10 μM 5-HT (n=5). FIG. 5A presents examples of relaxation traces (one animal, six arterial strips) of NTG in the absence and presence of an sGC inhibitor (ODQ) (10 μM) or superoxide dismutase (SOD1) (1000 U/ml, converts HNO into NO, or the extracellular NO scavenger CPTIO (200 μM), or SOD1 and CPTIO together. All traces were normalized for comparison of extent of relaxation. FIG. 5B is a graphical representation of the amplification of the area in the red circle in ‘A’. FIG. 5C is a graphical representation of the effects of SOD1, CPTIO, SOD1+CPTIO, and ODQ on relaxation in response to Nitroglycerin (NTG). FIG. 5D is a graphical representation of the effects of SOD1, CPTIO, and SOD1+CPTIO on relaxation in response to nitrosoglutathione (GSNO). SOD1, via putative conversion of HNO to NO, enables the inhibitory effects of CPTIO on relaxation caused by NTG and GSNO.

The next series relates to sGC-cGMP pathway. The series can be described thus: Potentiation of nitrodilator vasodilation by sGC-cGMP pathway agents in vitro. In kind it is cell-based. The source says: In certain embodiments, the combined application of a nitrodilator and a nitrogen oxide compound is affected by a perturbation in the sGC-cGMP pathway. Vasodilation mediated by the nitrodilator and/or nitrogen oxide compound can be further facilitated by agents that enhance the sGC-cGMP pathway. Such agents include sGC stimulators and activators, cGMP-phosphodiesterase inhibitors, and others. The sGC stimulators directly activate reduced-heme-containing sGC that generates cGMP to cause vasodilation. The sGC activators activate sGC when the heme is oxidized or the heme moiety is missing. A sGC stimulator can be riociguat or vericiguat. The sGC activator can be runcaciguat, cinaciguat, ataciguat, or kynurenine. The cGMP-phosphodiesterase inhibitors, such as sildenafil, vardenafil, and tadalafil, stabilize cGMP via preventing its degradation by phosphodiesterase-5. […] Certain embodiments include methods of treating a vascular condition or a respiratory condition in a human subject by administering a therapeutically effective amount of a nitrogen oxide compound and a cGMP-phosphodiesterase inhibitor. […] The potentiation effects of riociguat and sildenafil on vasodilation by nitrodilators including GSNO have been confirmed in vitro.

A short description of series [2]: Ability to release NO / stability.
A further series has as its system intact rats. The series can be described thus: Femoral vasodilation in intact rats treated with L-NAME. The format is in vivo. The following applies: for femoral vasodilation in response to the SNO: rats treated with L-NAME.
For series [3] the following is noted: not told.
Another series deals with intact sheep. The series can be described thus: Femoral vasodilation in intact sheep treated with L-NAME. In kind it is in vivo. To be noted: for femoral vasodilation in response to the SNO: sheep treated with L-NAME.
For series [4] the following is noted: cited from earlier work; for membrane permeability in words: Hogg et al.
A further series deals with newborn lambs. The following applies: low micromolar intravenous nitrite.
Another series has as its system coronary arteries. The source says:
SNOs, DNICs, heme-NO, nitroprusside, NTG, and other nitrodilators, dilate vessels via activation of soluble guanylyl cyclase (sGC) in vascular smooth muscle cells. These nitrodilators have potent NO-mimetic vasoactivities despite not releasing requisite amounts of free NO. These nitrodilators activate sGC via a preformed NANOS found within the vascular smooth muscle cell. Other examples of the nitrodilators include, but are not limited to, isosorbide dinitrate, isosorbide mononitrate, and nitrosyl complexes with metals or metalloproteins with metals other than iron.

Series [5] has as its system isolated sheep femoral arteries. The experiment in a line: Use-dependent loss of vasodilatory response to GSNO in isolated arteries, potentiation and reversal. In kind it is cell-based. The protocol:
To increase the store experimentally, isolated sheep femoral arteries were pre-exposed to 1 μM nitrite, a concentration two-to-three orders of magnitude below which nitrite itself causes vasodilation.

In series [6] the test system is mesenteric vasculature of rats. The series can be described thus: Mesenteric vasodilatory response to nitrodilators after chronic pretreatment of rats. In kind it is in vivo. The following applies: for effect of pretreatment on mesenteric vasodilatory response to nitrodilators: pretreatment for four days. As for the experimental part: (§1) Likewise, NTG has been thought to activate sGC by releasing the NO moiety from its nitrate group via the action of enzymes such as aldehyde dehydrogenase-2. However, this conversion produces nitrite rather than NO, especially at therapeutic NTG concentrations (<1 μM).

The next series concerns sheep carotid artery. The series can be described thus: Mobilization of N15-NOx from sheep carotid artery by intraluminal GSNO (GC-MS). The following applies: 2 h, vs control. As for the experimental part: FIG. 4A is an illustration of the protocol. A sheep carotid artery (length 8 cm) was incubated with 10 μM N^15-nitrite in DMEM under 10.5% O2 for 6 h to load the vessel with N^15-NOx (NO metabolites). FIG. 4B is an illustration of the prepared vessels. After extensive washes, the arteries were well sealed and incubated for 2 h with 3 ml 100 μM oxyhemoglobin in HEPES buffer on the extraluminal side and 5 μM GSNO or control (0.7 ml HEPES buffer containing 0.1 mM DTPA) on the luminal side. FIG. 4C is a graphical representation of the response of the arteries exposed to GSNO. The N^15-NOx levels were lower (p=0.0206) in the homogenate of arteries exposed to GSNO. FIG. 4D is a graphical representation of the response of the arteries exposed to intraluminal GSNO. The N^15-NOx in extraluminal buffer was higher (p=0.0400) in the arteries exposed to intraluminal GSNO. N^15-NOx was measured by GC-MS. The results are consistent with intraluminal GSNO stimulating an efflux of NOx from the vascular smooth muscle as manifested by a decrease in intracellular NOx and an increase in extracellular NOx.
DNICs function as an intracellular NO store. NO can be stored as DNICs in ferritin, a cytosolic protein that stores and releases iron in controlled fashion. […] N^15-NOx was measured by GC-MS. […]

The next series deals with isolated arteries. The series can be described thus: Vasodilation of isolated arteries (potency, sustainability). In kind it is cell-based. To be noted: read-out: EC50 (vasodilatory sensitivity). The protocol: as §1

For `CC1(C)CC(O)CC(C)(C)N1[O]` [TEMPOL], the “enabling of inhibition of vasodilation by CPTIO” value in [1] is on record as “enable the inhibitory effects of CPTIO”.

With `CC1(C)N([O])C(c2ccc(C(=O)O)cc2)=[N+]([O-])C1(C)C` [CPTIO], in series [1] (CPTIO 200 μM), the “effect on NTG- or GSNO-mediated relaxation” value is given as “does not affect”.

With `[Cl][Cu]` [CuCl], in series [1], the “enabling of inhibition of vasodilation by CPTIO” value is “enable the inhibitory effects of CPTIO”.

In the case of `COC(=O)N(C)c1c(N)nc(-c2nn(Cc3ccccc3F)c3ncccc23)nc1N` [riociguat], the “effect on vasodilation by nitrodilators including GSNO” value in the series on sGC-cGMP pathway is “potentiation”.

As to “SOD1: superoxide dismutase, converts HNO into NO”, the “enabling of inhibition of vasodilation by CPTIO” value in [1] was “enables inhibition of vasodilation by CPTIO”.

`N[C@@H](CSN=O)C(=O)O` [L-cysNO, S-nitrosocysteine]: in [2] (over one hour, presence of metal chelator in PBS), the NO moiety released is under 10%. In addition, the “stability, fold less stable than GSNO” value in series [2] (relative to GSNO) is given as 10 fold. Also, the “femoral vasodilation in response to the SNO” value (from here on “femoral vasodilation”) in the series with intact rats and with intact sheep was “greatly diminished or even absent” each time. The Membrane permeability entry in series [3] is reported as “+”. In [4], the “membrane permeability in words” value was “can be taken up into cells via the L-type amino acid transporter (LAT)”.

For `O=NO` [nitrite], the “effect on GSNO-mediated vasodilation” value in the series with newborn lambs is “potentiate”. Also, the “effect on NTG tolerance of coronary arteries” value with coronary arteries (in vitro) and in the series on coronary arteries (in vivo) was “reverting NTG tolerance” each time. The “effect on vasodilatory responses to GSNO” value in series [5] (arteries pre-exposed to 1 μM nitrite) is “potentiate”. For the same compound, the “attenuation of vasodilatory response to GSNO after repeated GSNO exposure” value in series [5] (subsequent incubation with 1 μM nitrite for 30 min) is reported as “reversed”. Moreover, the “effect on vasodilatory responses to subsequent SNO infusions in femoral arteries” value in the series with intact rats (rats pre-treated with L-NAME, intravenous sub-vasodilatory nitrite) was “potentiated”; in the series with intact sheep (sheep pre-treated with L-NAME, intravenous sub-vasodilatory nitrite), “potentiated”.

Consider `CNC(=N)NCCC[C@H](N)C(=O)O` [L-NMMA], for which, in [6], the “effect of pretreatment on mesenteric vasodilatory response to nitrodilators” value (shortened to “effect of pretreatment”) was “not observed”.

Consider `N[C@@H](CCC(=O)N[C@@H](CSN=O)C(=O)NCC(=O)O)C(=O)O` [GSNO, S-nitroso-glutathione], for which the “loss of initial vasodilatory response to GSNO” value in series [5] (isolated vessels, after repeated exposures to GSNO) is listed as about 50%. The “femoral vasodilation” value in the series with intact rats and with intact sheep was “greatly diminished or even absent” each time. The Membrane permeability entry in series [3] is “−”. The “N15-NOx levels in homogenate of arteries” value with sheep carotid artery (5 μM GSNO luminal side, p=0.0206) is “lower”. The “N15-NOx in extraluminal buffer” value in the series with sheep carotid artery (5 μM intraluminal GSNO, p=0.0400) is recorded as “higher”. Besides, in series [4], the “membrane permeability in words” value is “largely membrane-impermeable”. In series [4] (relative to L-cysNO), the “membrane permeability, fold less than L-cysNO” value is 200 fold.

`O=[N+]([O-])OCC(CO[N+](=O)[O-])O[N+](=O)[O-]` [NTG, nitroglycerin]: in the series on isolated arteries, the EC50 (as a rule, the midpoint of the concentration-response curve) was under 0.1 µM. In [3], the Membrane permeability entry was “+”.

`N[C@H](CSN=O)C(=O)O` [D-cysNO]: the “femoral vasodilation” value in the series with intact rats and in the series on intact sheep was “greatly diminished or even absent” in each case. In addition, the Membrane permeability result in series [3] was “−”. The “membrane permeability in words” value in series [4] is given as “largely membrane-impermeable”.

Consider `CCCc1nn(C)c2c(=O)[nH]c(-c3cc(S(=O)(=O)N4CCN(C)CC4)ccc3OCC)nc12` [sildenafil], for which the “effect on vasodilation by nitrodilators including GSNO” value in the series on sGC-cGMP pathway was “potentiation”.

For the compound `C=CC1=C(C)c2cc3[n-]c(cc4[n-]c(cc5nc(cc1n2)C(C)=C5C=C)c(C)c4CCC(=O)[O-])c(CCC(=O)[O-])c3C.N#[O+].[Fe].[H+].[H+]` [Heme-NO, nitrosyl-heme], in series [3], the Membrane permeability entry is reported as “−”.

Regarding `COC(=O)[C@@H](N)CCCNC(=N)N[N+](=O)[O-]` [L-NAME], in [6], the “effect of chronic pretreatment on mesenteric vasodilation by GSNO, glut-BDNIC and NTG” value is listed as “potentiated”; the “effect of pretreatment” value is on record as “potentiated”.

For the compound `COC(=O)[C@H](N)CCCNC(=N)N[N+](=O)[O-]` [D-NAME, D-NG-Nitro arginine methyl ester], in [6], the “effect of chronic pretreatment on mesenteric vasodilation by GSNO, glut-BDNIC and NTG” value is “potentiated”; the “effect of pretreatment” value is given as “potentiated”.
